≈ marks a conversion by molar mass, not a printed value.
Legend:
Pyrenophora teres = Pyrenophora teres test (barley)/protective; conditions: protective, 0.025 % by weight in the spray liquor, 7 days after inoculation
Method: Solvent: 100 parts by weight of dimethylformamide
Emulsifier: 0.25 part by weight of alkylaryl polyglycol ether
After the spray coating has dried on, the plants are sprayed with a conidia suspension of Pyrenophora teres. The plants then remain in an incubation cabin at 20° C. and 100% relative atmospheric humidity for 48 hours.
The plants are placed in a greenhouse at a temperature of about 20° C. and a relative atmospheric humidity of about 80%.
(§2) Evaluation is carried out 7 days after the inoculation.

Drechslera graminea = Drechslera graminea test (barley)/seed treatment (syn. Helminthosporium gramineum); format: in vivo; conditions: seed treatment, about 3 weeks after sowing, undressed 29.7
Pyricularia oryzae = format: in vivo; conditions: rice, protective; active compound concentration 0.025 %; 4 days after inoculation
Aspergillus niger = experiment: Minimum inhibitory concentration (MIC) in agar, Aspergillus niger; format: cell-based; conditions: 336 h, 28° C., two weeks
Method: (§1) Active compounds according to the invention are added in concentrations of 0.1 mg/l to 5,000 mg/l to an agar prepared from bierwort and peptone. After being kept at 28° C. and 60 to 70% relative atmospheric humidity for two weeks, the MIC is determined. The MIC is the lowest concentration of active compound at which no growth at all by the species of microbe used takes place, and is shown in the following Table I.

Chaetomium globosum = experiment: Minimum inhibitory concentration (MIC) in agar, Chaetomium globosum; format: cell-based; conditions: 336 h, 28° C., two weeks
Method: as §1

Penicillium glaucum = experiment: Minimum inhibitory concentration (MIC) in agar, Penicillium glaucum; format: cell-based; conditions: 336 h, 28° C., two weeks
Method: as §1

Polyporus versicolor = experiment: Minimum inhibitory concentration (MIC) in agar, Polyporus versicolor; format: cell-based; conditions: Trametes versicolor, 336 h, 28° C., two weeks
Method: as §1

Sclerophoma pityophila = experiment: Minimum inhibitory concentration (MIC) in agar, Sclerophoma pityophila; format: cell-based; conditions: Sydowia polyspora, 336 h, 28° C., two weeks
Method: as §1

Aureobasidium pullulans = experiment: Minimum inhibitory concentration (MIC) in agar, Aureobasidium pullulans; format: cell-based; conditions: 336 h, 28° C., two weeks
Method: as §1

Lentinus tigrinus = experiment: Minimum inhibitory concentration (MIC) in agar, Lentinus tigrinus; format: cell-based; conditions: 336 h, 28° C., two weeks
Method: as §1

Alternaria tenuis = experiment: Minimum inhibitory concentration (MIC) in agar, Alternaria tenuis; format: cell-based; conditions: Alternaria alternata, 336 h, 28° C., two weeks
Method: as §1

Coniophora puteana = experiment: Minimum inhibitory concentration (MIC) in agar, Coniophora puteana; format: cell-based; conditions: 336 h, 28° C., two weeks
Method: as §1

Plasmopara viticola = experiment: Plasmopara test (vines)/protective; conditions: protective, 7 days after inoculation
Method: Solvent: 4.7 parts by weight of acetone
Emulsifier: 0.3 part by weight of alkylaryl polyglycol ether
After the spray coating has dried on, the plants are inoculated with an aqueous spore suspension of Plasmopara viticola and then remain in a humidity chamber at 20° to 22° C. and 100% relative atmospheric humidity for 1 day. The plants are then placed in a greenhouse at 22° C. and about 80% atmospheric humidity for 5 days. The plants are then moistened and placed in a humidity chamber for 1 day.
as §2

CCOc1ccc(N(SC(F)(Cl)Cl)C(=O)OC)cc1
Disease infestation in % of the untreated control (Pyrenophora teres): 29.4%

COC(=O)N(SC(F)(Cl)Cl)c1cc(Cl)c(OC)c(Cl)c1
Disease infestation in % of the untreated control (Pyrenophora teres): 25.0%

COc1c(Cl)cc(N(SC(F)(Cl)Cl)C(=O)OC(C)C)cc1Cl
Disease infestation in % of the untreated control (Pyrenophora teres): 25.0%

COC(=O)N(SC(F)(Cl)Cl)c1ccc(OC)c(OC)c1
Disease infestation in % of the untreated control (Pyrenophora teres): 0.0%

COc1ccc(N(SC(F)(Cl)Cl)C(=O)OC(C)C)cc1OC
Disease infestation in % of the untreated control (Pyrenophora teres): 25.0%

O=C(OCC(Cl)(Cl)Cl)N(SC(F)(Cl)Cl)c1ccc(Cl)cc1
Disease infestation in % of the untreated control (Pyrenophora teres): 33.7%

COC(=O)N(SC(F)(Cl)Cl)c1ccccc1
Diseased plants in % of the total plants emerged (Drechslera graminea; 500 mg/kg of seed): 3.1%

COCCOC(=O)N(SC(F)(Cl)Cl)c1ccccc1
Disease infestation in % of the untreated control (Pyricularia oryzae): 30%

O=C(OCc1ccc(Cl)c(Cl)c1)N(SC(F)(Cl)Cl)c1ccccc1
Disease infestation in % of the untreated control (Pyricularia oryzae): 10%

COC(=O)N(SC(F)(Cl)Cl)c1ccc(Cl)cc1 [Example 1]
MIC (Aspergillus niger): < 20 µg/mL
MIC (Chaetomium globosum): < 20 µg/mL
MIC (Penicillium glaucum): < 20 µg/mL

COC(=O)N(SC(F)(Cl)Cl)c1cccc(Cl)c1 [Example 9]
MIC (Aspergillus niger): < 20 µg/mL
MIC (Chaetomium globosum): < 20 µg/mL
MIC (Penicillium glaucum): < 20 µg/mL

COC(=O)N(SC(F)(Cl)Cl)c1cccc(Cl)c1Cl [Example 14]
MIC (Aspergillus niger): < 20 µg/mL
MIC (Chaetomium globosum): < 20 µg/mL
MIC (Penicillium glaucum): < 20 µg/mL

COC(=O)N(SC(F)(Cl)Cl)c1ccc(Cl)cc1Cl [Example 16]
MIC (Aspergillus niger): < 20 µg/mL
MIC (Chaetomium globosum): < 20 µg/mL
MIC (Penicillium glaucum): < 20 µg/mL

COC(=O)N(SC(F)(Cl)Cl)c1ccc(Cl)c(Cl)c1 [Example 18]
MIC (Aspergillus niger): 35 µg/mL (≈ 99.1 µM)
MIC (Chaetomium globosum): < 20 µg/mL
MIC (Penicillium glaucum): < 20 µg/mL

CCOC(=O)N(SC(F)(Cl)Cl)c1cc(Cl)cc(Cl)c1 [Example 23]
MIC (Aspergillus niger): 35 µg/mL (≈ 95.4 µM)
MIC (Polyporus versicolor): 2 µg/mL (≈ 5.45 µM)
MIC (Sclerophoma pityophila): 1.5 µg/mL (≈ 4.09 µM)
MIC (Chaetomium globosum): 10 µg/mL (≈ 27.2 µM)
MIC (Aureobasidium pullulans): 3.5 µg/mL (≈ 9.54 µM)
MIC (Penicillium glaucum): 7.5 µg/mL (≈ 20.4 µM)
MIC (Lentinus tigrinus): 1 µg/mL (≈ 2.72 µM)
MIC (Alternaria tenuis): 5 µg/mL (≈ 13.6 µM)
MIC (Coniophora puteana): 1 µg/mL (≈ 2.72 µM)

COC(=O)N(SC(F)(Cl)Cl)c1ccc(Cl)cc1C [Example 29]
MIC (Aspergillus niger): < 20 µg/mL
MIC (Chaetomium globosum): < 20 µg/mL
MIC (Penicillium glaucum): < 20 µg/mL

COC(=O)N(SC(F)(Cl)Cl)c1ccc(C)c(Cl)c1 [Example 31]
MIC (Aspergillus niger): < 20 µg/mL
MIC (Chaetomium globosum): < 20 µg/mL
MIC (Penicillium glaucum): < 20 µg/mL

COC(=O)N(SC(Cl)(Cl)Cl)c1ccccc1 [Example 41]
MIC (Aspergillus niger): 5 µg/mL (≈ 16.6 µM)
MIC (Polyporus versicolor): 1.5 µg/mL (≈ 4.99 µM)
MIC (Sclerophoma pityophila): 1 µg/mL (≈ 3.33 µM)
MIC (Chaetomium globosum): 2 µg/mL (≈ 6.65 µM)
MIC (Aureobasidium pullulans): 1.5 µg/mL (≈ 4.99 µM)
MIC (Penicillium glaucum): 20 µg/mL (≈ 66.5 µM)
MIC (Lentinus tigrinus): 0.5 µg/mL (≈ 1.66 µM)
MIC (Alternaria tenuis): 0.5 µg/mL (≈ 1.66 µM)
MIC (Coniophora puteana): 0.1 µg/mL (≈ 0.333 µM)

CN(C)S(=O)(=O)N(SC(F)(Cl)Cl)c1ccccc1 [drawing 10, reference compound]
Disease infestation in % of the untreated control (Pyrenophora teres): 72.5%

COC(=O)N(SC(F)(Cl)Cl)c1ccc(C)c(Cl)c1 [drawing 11]
Disease infestation in % of the untreated control (Pyrenophora teres): 39.4%

COC(=O)N(SC(F)(Cl)Cl)c1ccc(Cl)cc1Cl [drawing 12]
Disease infestation in % of the untreated control (Pyrenophora teres): 37.7%

COC(=O)N(SC(F)(Cl)Cl)c1ccc(Cl)cc1C [drawing 13]
Disease infestation in % of the untreated control (Pyrenophora teres): 31.3%

COC(=O)N(SC(F)(Cl)Cl)c1cccc(C(F)(F)F)c1 [drawing 14]
Disease infestation in % of the untreated control (Pyrenophora teres): 30.3%

COC(=O)N(SC(F)(Cl)Cl)c1cc(Cl)cc(Cl)c1 [drawing 15]
Disease infestation in % of the untreated control (Pyrenophora teres): 30.3%

COC(=O)N(SC(F)(Cl)Cl)c1cccc(Cl)c1 [drawing 16]
Disease infestation in % of the untreated control (Pyrenophora teres): 20.3%

COC(=O)N(SC(F)(Cl)Cl)c1ccc(C(F)(F)F)c(Cl)c1 [drawing 17]
Disease infestation in % of the untreated control (Pyrenophora teres): 20.3%

COC(=O)N(SC(Cl)(Cl)Cl)c1ccccc1 [drawing 18]
Disease infestation in % of the untreated control (Pyrenophora teres): 20.3%

COC(=O)N(SC(F)(Cl)Cl)c1ccc(Cl)c(Cl)c1 [drawing 25]
Disease infestation in % of the untreated control (Pyrenophora teres): 14.5%

COC(=O)N(SC(F)(Cl)Cl)c1ccc(Cl)cc1 [drawing 26]
Disease infestation in % of the untreated control (Pyrenophora teres): 37.7%

CN(C)S(=O)(=O)N(SC(F)(Cl)Cl)c1ccccc1 [drawing 27, reference compound]
Diseased plants in % of the total plants emerged (Drechslera graminea; 600 mg/kg of seed): 23.9%

COC(=O)N(SC(F)(Cl)Cl)c1ccc(C)c(Cl)c1 [drawing 28]
Diseased plants in % of the total plants emerged (Drechslera graminea; 500 mg/kg of seed): 3.2%

COC(=O)N(SC(F)(Cl)Cl)c1ccc(Cl)cc1C [drawing 29]
Diseased plants in % of the total plants emerged (Drechslera graminea; 500 mg/kg of seed): 0.0%

COC(=O)N(SC(F)(Cl)Cl)c1cccc(C(F)(F)F)c1 [drawing 30]
Diseased plants in % of the total plants emerged (Drechslera graminea; 500 mg/kg of seed): 0.0%

COC(=O)N(SC(F)(Cl)Cl)c1cc(Cl)cc(Cl)c1 [drawing 31]
Diseased plants in % of the total plants emerged (Drechslera graminea; 500 mg/kg of seed): 0.0%

COC(=O)N(SC(F)(Cl)Cl)c1ccc(C(F)(F)F)c(Cl)c1 [drawing 32]
Diseased plants in % of the total plants emerged (Drechslera graminea; 500 mg/kg of seed): 1.0%

O=C(OCc1ccccc1)N(SC(F)(Cl)Cl)c1ccccc1 [drawing 36]
Disease infestation in % of the untreated control (Pyricularia oryzae): 0%

O=C(OCc1ccccc1)N(SC(F)(Cl)Cl)c1ccccc1 [drawing 39]
Infestation in % (Plasmopara viticola; active compound concentration 1 ppm): 47%
Infestation in % (Plasmopara viticola; active compound concentration 2 ppm): 24%

— US4798905A, “Sulphenylated carbamic acid esters, a process for their preparation and their use” (Bayer Aktiengesellschaft, priority 1984, dated 1989)
